Legend:
Assay type in all cases: functional
[1] = Cytotoxicity against human Hs578T cells assessed as cell growth at 10^-5 M after 48 hrs by SRB assay; conditions: Hs-578T, read-out: Activity
HOP-62 [2] = assay: Cytotoxicity against human HOP62 cells after 48 hrs by SRB assay; conditions: HOP-62, 48 h
[3] = Cytotoxicity against human OVCAR5 cells assessed as cell growth at 10^-7 M after 48 hrs by SRB assay; conditions: OVCAR-5, 48 h, read-out: Activity
NCI-H522 [4] = assay: Cytotoxicity against human NCI-H522 cells assessed as cell growth at 10^-5 M after 48 hrs by SRB assay; conditions: NCI-H522, 48 h, read-out: Activity
NCI-H460 [5] = assay: Cytotoxicity against human NCI-H460 cells assessed as cell growth at 10^-5 M after 48 hrs by SRB assay; conditions: NCI-H460, 48 h, read-out: Activity
UACC-62 = assay: Cytotoxicity against human UACC62 cells assessed as cell growth at 10^-4 M after 48 hrs by SRB assay; conditions: UACC-62, 48 h, read-out: Activity
K562 = assay: Cytotoxicity against human K562 cells assessed as cell growth at 10^-5 M after 48 hrs by SRB assay; conditions: K562, 48 h, read-out: Activity
HL-60(TB) [6] = assay: Cytotoxicity against human HL-60(TB) cells assessed as cell growth at 10^-5 M after 48 hrs by SRB assay; conditions: HL-60, 48 h, read-out: Activity
MOLT-4 [7] = assay: Cytotoxicity against human MOLT4 cells assessed as cell growth at 10^-5 M after 48 hrs by SRB assay; conditions: MOLT-4, 48 h, read-out: Activity
MOLT-4 [8] = assay: Cytotoxicity against human MOLT4 cells assessed as cell growth at 10^-4 M after 48 hrs by SRB assay; conditions: MOLT-4, 48 h, read-out: Activity
[9] = Cytotoxicity against human OVCAR4 cells assessed as cell growth at 10^-5 M after 48 hrs by SRB assay; conditions: OVCAR-4, 48 h, read-out: Activity
[10] = Cytotoxicity against human UO31 cells assessed as cell growth at 10^-8 M after 48 hrs by SRB assay; conditions: UO-31, 48 h, read-out: Activity
DU-145 = assay: Cytotoxicity against human DU145 cells assessed as cell growth at 10^-5 M after 48 hrs by SRB assay; conditions: DU-145, 48 h, read-out: Activity
SW-620 = assay: Cytotoxicity against human SW620 cells assessed as cell growth at 10^-5 M after 48 hrs by SRB assay; conditions: SW-620, 48 h, read-out: Activity
A549 = assay: Cytotoxicity against human A549 cells assessed as cell growth at 10^-5 M after 48 hrs by SRB assay; conditions: A549, 48 h, read-out: Activity
MDA-MB-231 = assay: Cytotoxicity against human MDA-MB-231 cells assessed as cell growth at 10^-7 M after 48 hrs by SRB assay; conditions: MDA-MB-231, 48 h, read-out: Activity
A498 [11] = assay: Cytotoxicity against human A498 cells assessed as cell growth at 10^-8 M after 48 hrs by SRB assay; conditions: A498, 48 h, read-out: Activity
M14 [12] = assay: Cytotoxicity against human M14 cells assessed as cell growth at 10^-7 M after 48 hrs by SRB assay; conditions: M14, 48 h, read-out: Activity
SR = assay: Cytotoxicity against human SR cells assessed as cell growth at 10^-8 M after 48 hrs by SRB assay; conditions: read-out: Activity
SNB-19 = assay: Cytotoxicity against human SNB19 cells assessed as cell growth at 10^-5 M after 48 hrs by SRB assay; conditions: SNB-19, 48 h, read-out: Activity
CAKI-1 = assay: Cytotoxicity against human Caki1 cells assessed as cell growth at 10^-5 M after 48 hrs by SRB assay; conditions: CAKI-1, 48 h, read-out: Activity
MOLT-4 [13] = assay: Cytotoxicity against human MOLT4 cells assessed as cell growth at 10^-6 M after 48 hrs by SRB assay; conditions: MOLT-4, 48 h, read-out: Activity
MDA-MB-468 = assay: Cytotoxicity against human MDA-MB-468 cells assessed as cell growth at 10^-4 M after 48 hrs by SRB assay; conditions: MDA-MB-468, 48 h, read-out: Activity
[14] = Cytotoxicity against human OVCAR5 cells assessed as cell growth at 10^-5 M after 48 hrs by SRB assay; conditions: OVCAR-5, 48 h, read-out: Activity
A498 [15] = assay: Cytotoxicity against human A498 cells assessed as cell growth at 10^-7 M after 48 hrs by SRB assay; conditions: A498, 48 h, read-out: Activity
HT-29 [16] = assay: Cytotoxicity against human HT-29 cells assessed as cell growth at 10^-8 M after 48 hrs by SRB assay; conditions: HT-29, 48 h, read-out: Activity
NCI-H460 [17] = assay: Cytotoxicity against human NCI-H460 cells after 48 hrs by SRB assay; conditions: NCI-H460, 48 h
HOP-92 = assay: Cytotoxicity against human HOP92 cells assessed as cell growth at 10^-8 M after 48 hrs by SRB assay; conditions: HOP-92, 48 h, read-out: Activity
HT-29 [18] = assay: Cytotoxicity against human HT-29 cells assessed as cell growth at 10^-5 M after 48 hrs by SRB assay; conditions: HT-29, 48 h, read-out: Activity
HOP-62 [19] = assay: Cytotoxicity against human HOP62 cells assessed as cell growth at 10^-5 M after 48 hrs by SRB assay; conditions: HOP-62, 48 h, read-out: Activity
HL-60(TB) [20] = assay: Cytotoxicity against human HL-60(TB) cells assessed as cell growth at 10^-8 M after 48 hrs by SRB assay; conditions: HL-60, 48 h, read-out: Activity
[21] = Cytotoxicity against human UO31 cells assessed as cell growth at 10^-5 M after 48 hrs by SRB assay; conditions: UO-31, 48 h, read-out: Activity
HL-60(TB) [22] = assay: Cytotoxicity against human HL-60(TB) cells assessed as cell growth at 10^-6 M after 48 hrs by SRB assay; conditions: HL-60, 48 h, read-out: Activity
T47D = assay: Cytotoxicity against human T47D cells assessed as cell growth at 10^-5 M after 48 hrs by SRB assay; conditions: read-out: Activity
MDA-MB-435 = assay: Cytotoxicity against human MDA-MB-435 cells assessed as cell growth at 10^-5 M after 48 hrs by SRB assay; conditions: MDA-MB-435, 48 h, read-out: Activity
NCI-H522 [23] = assay: Cytotoxicity against human NCI-H522 cells after 48 hrs by SRB assay; conditions: NCI-H522, 48 h
M14 [24] = assay: Cytotoxicity against human M14 cells assessed as cell growth at 10^-5 M after 48 hrs by SRB assay; conditions: M14, 48 h, read-out: Activity
786-0 = assay: Cytotoxicity against human 786-0 cells assessed as cell growth at 10^-5 M after 48 hrs by SRB assay; conditions: 786-0, 48 h, read-out: Activity
KM12 = assay: Cytotoxicity against human KM12 cells assessed as cell growth at 10^-5 M after 48 hrs by SRB assay; conditions: KM12, 48 h, read-out: Activity
Malme-3M = assay: Cytotoxicity against human MALME-3M cells assessed as cell growth at 10^-5 M after 48 hrs by SRB assay; conditions: read-out: Activity

Compound C=CCn1c(C)nc2ccc(Nc3nc(Nc4ccc(F)cc4)nc4ccccc34)cc21 has a growth at 10 µM [1] of 50%, a GI50 (HOP-62 [2]) of 1.88 µM and a TGI (HOP-62 [2]) of 3.76 µM. For the same compound, the growth at 0.1 µM [3] was 101%, the growth at 10 µM (NCI-H522 [4]) was 8% and the growth at 10 µM (NCI-H460 [5]) was 11%. For the same compound, the growth at 100 µM (UACC-62) was -70%, the growth at 10 µM (K562) was 3% and the growth at 10 µM (HL-60(TB) [6]) was 26%. It also gave a growth at 10 µM (MOLT-4 [7]) of -18%, a growth at 100 µM (MOLT-4 [8]) of -48% and a growth at 10 µM [9] of -26%. The growth at 0.01 µM [10] was 87%, the growth at 10 µM (DU-145) was 47% and the growth at 10 µM (SW-620) was 1%. The growth at 10 µM (A549) was 26%, the growth at 0.1 µM (MDA-MB-231) was 98% and the growth at 0.01 µM (A498 [11]) was 81%. The growth at 0.1 µM (M14 [12]) was 97%, the growth at 0.01 µM (SR) was 98% and the growth at 10 µM (SNB-19) was 48%. The growth at 10 µM (CAKI-1) was 42%, the growth at 1 µM (MOLT-4 [13]) was 73% and the growth at 100 µM (MDA-MB-468) was -37%. The growth at 10 µM [14] was 59%, the growth at 0.1 µM (A498 [15]) was 83% and the growth at 0.01 µM (HT-29 [16]) was 100%. For the same compound, the GI50 (NCI-H460 [17]) was 3.11 µM, the LC50 (concentration killing 50% of cells) (NCI-H460 [17]) was 83.9 µM and the TGI (NCI-H460 [17]) was 14.5 µM. The growth at 0.01 µM (HOP-92) was 95%, the growth at 10 µM (HT-29 [18]) was 5% and the growth at 10 µM (HOP-62 [19]) was -70%. It also gave a growth at 0.01 µM (HL-60(TB) [20]) of 94%, a growth at 10 µM [21] of 33% and a growth at 1 µM (HL-60(TB) [22]) of 104%. For the same compound, the growth at 10 µM (T47D) was -47%, the growth at 10 µM (MDA-MB-435) was 24% and the GI50 (NCI-H522 [23]) was 3.12 µM. For the same compound, the TGI (NCI-H522 [23]) was 13.4 µM, the CC50 (NCI-H522 [23]; read-out: LC50 (the source's name)) was 75.5 µM and the growth at 10 µM (M14 [24]) was 8%. The growth at 10 µM (786-0) was 43%, the growth at 10 µM (KM12) was 22% and the growth at 10 µM (Malme-3M) was 63%.
For C=CCn1c(C)nc2ccc(Nc3nc(Sc4ccc(N)cc4)nc4ccccc34)cc21, the growth at 10 µM [1] was 98.1%, the growth at 10 µM (NCI-H522 [4]) was 89.5% and the growth at 10 µM (NCI-H460 [5]) was 104%. The growth at 10 µM (K562) was 92.5%, the growth at 10 µM (HL-60(TB) [6]) was 98.8% and the growth at 10 µM (MOLT-4 [7]) was 88.2%. The growth at 10 µM [9] was 88.5%, the growth at 10 µM (DU-145) was 114% and the growth at 10 µM (SW-620) was 108%. The growth at 10 µM (A549) was 89.8%, the growth at 10 µM (SNB-19) was 93.2% and the growth at 10 µM (CAKI-1) was 90.5%. For the same compound, the growth at 10 µM [14] was 118%, the growth at 10 µM (HT-29 [18]) was 97.3% and the growth at 10 µM (HOP-62 [19]) was 104%. For the same compound, the growth at 10 µM [21] was 89.5%, the growth at 10 µM (T47D) was 71.7% and the growth at 10 µM (MDA-MB-435) was 96.9%. It also gave a growth at 10 µM (M14 [24]) of 109%, a growth at 10 µM (786-0) of 102% and a growth at 10 µM (KM12) of 96.8%. It also gave a growth at 10 µM (Malme-3M) of 123%.
C=CCn1c(C)nc2ccc(Nc3nc(Nc4ncccn4)nc4ccccc34)cc21 showed a growth at 10 µM [1] of 87.7%, a growth at 10 µM (NCI-H522 [4]) of 98.1% and a growth at 10 µM (NCI-H460 [5]) of 97.8%. It also gave a growth at 10 µM (K562) of 83%, a growth at 10 µM (HL-60(TB) [6]) of 94% and a growth at 10 µM (MOLT-4 [7]) of 97.2%. For the same compound, the growth at 10 µM [9] was 85.6%, the growth at 10 µM (DU-145) was 112% and the growth at 10 µM (SW-620) was 100%. It also gave a growth at 10 µM (A549) of 90.3%, a growth at 10 µM (SNB-19) of 97.6% and a growth at 10 µM (CAKI-1) of 75.6%. The growth at 10 µM [14] was 114%, the growth at 10 µM (HT-29 [18]) was 104% and the growth at 10 µM (HOP-62 [19]) was 84.8%. It also gave a growth at 10 µM [21] of 82.1%, a growth at 10 µM (T47D) of 55.8% and a growth at 10 µM (MDA-MB-435) of 107%. It also gave a growth at 10 µM (M14 [24]) of 115%, a growth at 10 µM (786-0) of 106% and a growth at 10 µM (KM12) of 106%. The growth at 10 µM (Malme-3M) was 99%.
